pIC50: −log10 of the molar value. Where two headings read alike, the source gives them in different places.
What was measured:
rat bone marrow cells = assay: In vivo bone marrow micronucleus test
Method: The bone marrow cell micronucleus test was positive in male rats at ≥100 mg/kg/day and in female rats at ≥300 mg/kg/day.

[1] = system: Baf3-CCDC6-RET V804M cells; assay: Proliferation assay (CellTiter-Glo); format: cell-based, murine; details: Mus musculus, read-out: Cellular Viability IC50
Method: (§1) The cell lines HEK293T, Baf3, TT cell and NIH-3T3 were obtained from the Cell Resource Center, Peking Union Medical College (PCRC). HEK293T and NIH-3T3 were maintained in DMEM high glucose medium (#C3113-0500, Vivacell) supplemented with 10 % FBS (#10500064, Gibco) and 1 % Penicillin-Streptomycin (#15140122, Gibco). The murine Pro‐B cell line Baf3 was cultured in RPMI 1640 medium (#C3010, Vivacell) supplemented with 10 % FBS, 1 % Penicillin-Streptomycin and 1 ng/mL recombinant murine interleukin-3 (#213-13, PeproTech). All stably transformed BaF3 cells were cultured in RPMI 1640 without IL‐3. The TT MTC cell was grown in Ham's F-12K medium (#21127022, Gibco) supplemented with 10 % FBS and 1 % Penicillin-Streptomycin. Cells were cultured at 37 °C under 5 % CO2 and high humidity conditions.
(§2) KIF5B-RET, CCDC6-RET and mutations were cloned into pCDHL vector and were verified by sequencing. Reah RET expression vectors were separately co‐transfected with psPAX2 and pMD2.G packaging plasmids into 60-70% confluent HEK 293T cells maintained in 2 mL of culture medium in six‐well plates using Polyethyleneimine (PEI) transfection grade. Virus containing media was harvested after 48 h and filtered with 0.45 μm membrane and stored at -80 °C prior to infection. For infection of Ba/F3 cells, 1 mL of viral supernatant and 8 μg/mL polybrene were added to 5 million cells per well in six‐well plates. Infected cells were selected with the addition of 1 μg/mL puromycin for 2 weeks in RPMI-1640/ 10% FBS/ 1 ng/mL IL-3 medium. Subsquently, puromycin-resistant cells were cultured in IL-3-free medium for 1 week and RET fusion proteins were confirmed by immunoblot analysis.
(§3) Cell viability was assessed by luminescence using CellTiter-Glo 2.0 assay (Promega). IC50 curve fitting was performed using GraphPad Prism 9.0.

[2] = system: Baf3-KIF5B-RET V804M cells; assay: Proliferation assay (CellTiter-Glo); format: cell-based, murine; details: Mus musculus, read-out: Cellular Viability IC50
Method: as §1, §2, §3

[3] = system: Baf3-CCDC6-RET M918T cells; assay: Proliferation assay (CellTiter-Glo); format: cell-based, murine; details: Mus musculus, read-out: Cellular Viability IC50
Method: as §1, §2, §3

Baf3-CCDC6-RET WT cells = assay: Proliferation assay (CellTiter-Glo); format: cell-based, murine; details: Mus musculus, read-out: Cellular Viability IC50
Method: as §1, §2, §3

[4] = system: Baf3-KIF5B-RET M918T cells; assay: Proliferation assay (CellTiter-Glo); format: cell-based, murine; details: Mus musculus, read-out: Cellular Viability IC50
Method: as §1, §2, §3

Baf3-KIF5B-RET WT cells = assay: Proliferation assay (CellTiter-Glo); format: cell-based, murine; details: Mus musculus, read-out: Cellular Viability IC50
Method: as §1, §2, §3

cardiovascular system = assay: Cardiovascular safety pharmacology; format: in vivo; details: males 2, 4, 6 mg/kg; females 4, 8, 12 mg/kg oral
Method: In the safety pharmacological study of cardiovascular effects, four male and four female beagles with buried implants were selected. […] The animals were evaluated by cage-side and detailed clinical observations, electrocardiogram, heart rate, body temperature and blood pressure.

CYP2C19 = target: T1, CYP2C19 (Homo sapiens, UniProt P33261); assay: CYP inhibition in human liver microsomes; format: in vitro ADME; details: 0.5-25 μM
T1 construct: substrates of different CYP450 enzymes in mixed human liver microsomes; from tissue; host or cells: mixed human liver microsomes

NIH-3T3 cells = assay: Proliferation assay (CellTiter-Glo); format: cell-based, murine; details: Mus musculus, NIH3T3; NIH-3T3 (RET-negative); read-out: Cellular Viability IC50
Method: The cell lines HEK293T, Baf3, TT cell and NIH-3T3 were obtained from the Cell Resource Center, Peking Union Medical College (PCRC). […] All stably transformed BaF3 cells were cultured in RPMI 1640 without IL‐3. […] Cells were cultured at 37 °C under 5 % CO2 and high humidity conditions. […] Cell viability was assessed by luminescence using CellTiter-Glo 2.0 assay (Promega). IC50 curve fitting was performed using GraphPad Prism 9.0.

CYP2C9 = target: T2, CYP2C9 (Homo sapiens, UniProt P11712); assay: CYP inhibition in human liver microsomes; format: in vitro ADME; details: 0.5-25 μM
T2 construct: substrates of different CYP450 enzymes in mixed human liver microsomes; from tissue; host or cells: mixed human liver microsomes

[5] = Liver microsome metabolic stability; format: in vitro ADME; details: 1 μM
Source text: The production of major metabolites in human liver microsomes is closer to that in rats or dogs than in mice or monkeys. The amounts of major metabolites produced in human liver microsomes was closer to the amount produced in […]. […] In addition to the same eight monophasic metabolites as in the in vitro study, five di-phasic metabolites, M6, M7, M8, M9 and M10, were detected in rat bile, but the peak areas of the di-phasic metabolites were much smaller than those of the monophasic metabolites.

[6] = Plasma protein binding, rapid equilibrium dialysis; format: in vitro ADME; details: monkey, read-out: Plasma protein binding rate (converted)
[7] = Plasma protein binding, rapid equilibrium dialysis; format: in vitro ADME; details: mouse, read-out: Plasma protein binding rate
[8] = system: Chinese hamster ovary cells; assay: In vitro chromosome aberration test; format: cell-based
[9] = Plasma protein binding, rapid equilibrium dialysis; format: in vitro ADME; details: human, read-out: Plasma protein binding rate (converted)
CYP2D6 = target: T3, CYP2D6 (Homo sapiens, UniProt P10635); assay: CYP inhibition in human liver microsomes; format: in vitro ADME; details: 0.5-25 μM
T3 construct: substrates of different CYP450 enzymes in mixed human liver microsomes; from tissue; host or cells: mixed human liver microsomes

[10] = Acute toxicity, single oral gavage; format: in vivo; details: SD, rat, in vivo, oral, read-out: MTD, single dose
SD rats = assay: Acute toxicity, single oral gavage; format: in vivo; details: acute toxicity study in SD rats

T2 sequence (P11712 whole entry): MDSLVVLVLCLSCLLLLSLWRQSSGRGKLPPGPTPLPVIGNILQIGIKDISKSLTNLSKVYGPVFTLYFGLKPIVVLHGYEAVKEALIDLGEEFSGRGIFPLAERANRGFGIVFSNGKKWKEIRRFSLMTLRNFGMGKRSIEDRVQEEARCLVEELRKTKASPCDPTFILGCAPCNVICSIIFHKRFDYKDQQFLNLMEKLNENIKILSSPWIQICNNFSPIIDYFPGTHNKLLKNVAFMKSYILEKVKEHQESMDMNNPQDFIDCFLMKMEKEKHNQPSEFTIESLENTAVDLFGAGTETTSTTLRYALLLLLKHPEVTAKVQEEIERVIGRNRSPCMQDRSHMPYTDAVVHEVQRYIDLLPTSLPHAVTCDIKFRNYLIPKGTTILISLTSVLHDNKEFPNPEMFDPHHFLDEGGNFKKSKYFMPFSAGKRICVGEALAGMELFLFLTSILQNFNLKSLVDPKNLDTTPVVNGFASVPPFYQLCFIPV
T1 sequence (P33261 whole entry): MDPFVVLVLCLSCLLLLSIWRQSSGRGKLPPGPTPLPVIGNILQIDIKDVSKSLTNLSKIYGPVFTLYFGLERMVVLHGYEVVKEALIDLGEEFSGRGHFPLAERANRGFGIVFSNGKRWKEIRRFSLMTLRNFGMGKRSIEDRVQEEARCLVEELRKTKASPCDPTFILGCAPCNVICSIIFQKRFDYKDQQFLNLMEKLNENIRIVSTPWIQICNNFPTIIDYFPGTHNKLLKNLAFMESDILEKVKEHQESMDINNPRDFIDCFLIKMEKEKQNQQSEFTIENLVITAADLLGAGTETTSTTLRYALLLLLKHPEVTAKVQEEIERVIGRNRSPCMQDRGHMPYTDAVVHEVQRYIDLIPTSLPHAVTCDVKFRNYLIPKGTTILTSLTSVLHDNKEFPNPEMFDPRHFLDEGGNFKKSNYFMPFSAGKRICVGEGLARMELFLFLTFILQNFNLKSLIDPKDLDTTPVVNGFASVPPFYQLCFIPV
T3 sequence (P10635 whole entry): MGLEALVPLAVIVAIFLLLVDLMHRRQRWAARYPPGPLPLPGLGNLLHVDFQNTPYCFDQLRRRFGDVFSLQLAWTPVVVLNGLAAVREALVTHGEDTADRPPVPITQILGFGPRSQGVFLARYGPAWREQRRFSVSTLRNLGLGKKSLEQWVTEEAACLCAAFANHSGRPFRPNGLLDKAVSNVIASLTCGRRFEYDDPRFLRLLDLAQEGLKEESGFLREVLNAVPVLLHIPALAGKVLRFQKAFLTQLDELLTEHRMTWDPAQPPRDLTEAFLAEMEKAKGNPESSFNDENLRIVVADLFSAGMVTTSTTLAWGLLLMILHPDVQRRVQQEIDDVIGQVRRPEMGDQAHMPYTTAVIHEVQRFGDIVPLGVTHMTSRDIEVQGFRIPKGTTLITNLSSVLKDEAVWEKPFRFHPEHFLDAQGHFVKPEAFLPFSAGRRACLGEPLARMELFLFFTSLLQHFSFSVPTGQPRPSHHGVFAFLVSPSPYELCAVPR

COc1ccc(CN2C3CC2CN(c2ccc(-c4cc(N5CC(C)(O)C5)cn5ncc(C#N)c45)cn2)C3)cn1 [SY-5007, 6-(3-hydroxy-3-methylazetidin-1-yl)-4-(6-(6-((6-methoxypyridin-3-yl)methyl)-3,6-diazabicyclo[3.1.1]heptan-3-yl)pyridin-3-yl)pyrazolo[1,5-a]pyridine-3-carbonitrile]
Dose at which micronucleus test positive (rat bone marrow cells; female rats): ≥ 300 mg/kg/day | Dose at which micronucleus test positive (rat bone marrow cells; male rats): ≥ 100 mg/kg/day | pIC50 [1]: 7.57 | pIC50 [2]: 7.34 | pIC50 [3]: 8.26 | pIC50 (Baf3-CCDC6-RET WT cells): 7.99 | pIC50 [4]: 7.87 | pIC50 (Baf3-KIF5B-RET WT cells): 8.02 | Cardiovascular effects (cardiovascular system): None of the changes were found to be related to the study drug | pIC50 (CYP2C19): < 4.60 | pIC50 (NIH-3T3 cells): < 5.30 | pIC50 (CYP2C9): 5.18 | Metabolic half-time ([5]; dog liver microsomes): 280 min | Metabolic half-time ([5]; human liver microsomes): 166 min | Metabolic half-time ([5]; monkey liver microsomes): 57.9 min | Metabolic half-time ([5]; mouse liver microsomes): 109 min | Metabolic half-time ([5]; rat liver microsomes): 384 min | fraction unbound [6]: 0.023 | fraction unbound [7]: 0.01 | Chromosome aberration test result [8]: negative | fraction unbound [9]: 0.061 | pIC50 (CYP2D6): < 4.60 | MTD ([10]; female, females): 500 mg/kg | MTD ([10]; male, males): 250 mg/kg | Kidney: urea (SD rats): elevated urea
